Laboratory results: publication PMC4376002 (Frontiers in Bioengineering and Biotechnology, 2015)
In brackets after ≈: the same amount, converted by molar mass.

Legend:
[1] = tested on: Mip-like protein of Burkholderia pseudomallei (BpML1); settings: ref Norville et al., 2011; read-out: IC50-value toward BpML1; cited from earlier work
[2] = tested on: L. pneumophila Corby (WT); assay: microbe, parasite or virus in culture; type: cell-based, Legionella pneumophila; settings: for influence on the viability of wild type L. pneumophila: liquic culture; for MIC: Legionella pneumophila, 48 h, read-out: WT MIC, growth in YEB, 10 to 100 μM, 37°C, 2 days
Mip of L. pneumophila = Mip of L. pneumophila (Legionella pneumophila subsp. pneumophila, UniProt Q5ZXE0); assay: biochemical; type: biochemical
Chain of Mip of L. pneumophila (Q5ZXE0 21-233 limits assumed): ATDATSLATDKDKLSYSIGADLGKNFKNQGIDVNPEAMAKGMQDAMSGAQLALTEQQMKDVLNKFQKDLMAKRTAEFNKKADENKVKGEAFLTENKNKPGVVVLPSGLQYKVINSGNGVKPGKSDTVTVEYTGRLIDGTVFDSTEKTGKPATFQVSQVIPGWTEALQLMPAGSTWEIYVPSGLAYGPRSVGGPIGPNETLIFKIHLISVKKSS

human FKBP12 = human FKBP12 (Homo sapiens, UniProt P62942); assay: biochemical
Chain of human FKBP12 (P62942 whole entry): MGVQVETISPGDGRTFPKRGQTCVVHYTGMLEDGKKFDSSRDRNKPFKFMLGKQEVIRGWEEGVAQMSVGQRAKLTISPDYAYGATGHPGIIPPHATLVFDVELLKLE

[3] = tested on: L. pneumophila Corby in differentiated THP-1 macrophages; type: cell-based, Legionella pneumophila; settings: compound added 2 h post infection, cfu/ml 24 h post infection; for effect on bacterial replication in THP-1 cells: up to 100 μM; for concentration at which suppression of bacterial replication in THP-1 cells starts: 12.5 to 100 μM tested
[4] = tested on: Yersinia pseudotuberculosis; type: cell-based; settings: LB medium, data not shown
Klebsiella aerogenes = type: cell-based
[5] = tested on: Salmonella enterica subsp. Enterica; type: cell-based
Escherichia coli K12 = type: cell-based
[6] = tested on: Pseudomonas aeruginosa PA01; type: cell-based
Staphylococcus aureus = type: cell-based
[7] = growth in YEB, 10 to 100 μM, 37°C, 2 days

SMILES | WT Inhibition [2, 7] | influence on the viability of wild type L. pneumophila ([2]; 10 to 100 μM) | IC50 (Mip of L. pneumophila) [µM] | IC50 (human FKBP12) [µM] | MIC [2] [µM] | also measured
CCOC(=O)CN1C(=O)CC(CC(O)C2CC(C)CC(C)C2=O)CC1=O (centres unmarked) [Cycloheximide-N-ethylethanoate] |  |  |  |  |  | IC50 [1]: 6.5 ± 1 µM
C[C@@H]1CC([C@H](O)CC2CC(=O)N(CC(=O)NC(C)(C)C)C(=O)C2)C(=O)[C@@H](C)C1 (some centres unmarked) [MT_30.3] | - (no inhibition of growth at the highest tested concentration of 100 μM) | no influence | 33.8 ± 8.6 |  |  | 
C[C@@H]1CC([C@H](O)CC2CC(=O)N(CC(=O)NC34CC5CC(CC(C5)C3)C4)C(=O)C2)C(=O)[C@@H](C)C1 (some centres unmarked) [MT_30.8] | - (no inhibition of growth at the highest tested concentration of 100 μM) | no influence | 8.5 ± 2.1 | 0.4 ± 0.04 |  | 
C[C@@H]1CC([C@H](O)CC2CC(=O)N(CC(=O)N(C)C(C)(C)C)C(=O)C2)C(=O)[C@@H](C)C1 (some centres unmarked) [MT_30.9] |  |  | 31.7 ± 7.4 | 36.1 ± 4.1 | 30 (≈ 12.3 µg/mL) | effect on bacterial replication in THP-1 cells [3]: no effect; fold less effective than MT_30.32 in the protease coupled PPIase-assay (Mip of L. pneumophila): about 18 fold
CC1CC(C)C(=O)C(C(O)CC2CC(=O)N(CC(=O)NC34CC5CC(C)(CC(C)(C5)C3)C4)C(=O)C2)C1 (centres unmarked) [MT_30.32] |  |  | 1.7 ± 0.2 | 0.18 ± 0.05 | ≥ 30 | cytotoxicity to THP-1 cells (THP-1 cells): without having cytotoxic side effects; effect on growth of Y. pseudotuberculosis [4]: none of the tested strains were affected in their growth; concentration at which suppression of bacterial replication in THP-1 cells starts [3]: 50 µM; effect on bacterial replication in THP-1 cells [3]: effectively suppressed bacterial replication; effect on growth of K. aerogenes (Klebsiella aerogenes): none of the tested strains were affected in their growth; IC50-value for Mip relative to FKBP12 (fold higher; FKBP12 inhibited x-fold better) (Mip of L. pneumophila): 10 fold; effect on growth of S. enterica subsp. enterica [5]: none of the tested strains were affected in their growth; effect on growth of E. coli K12 (Escherichia coli K12): none of the tested strains were affected in their growth; effect on growth of P. aeruginosa PA01 [6]: none of the tested strains were affected in their growth; effect on growth of S. aureus (Staphylococcus aureus): none of the tested strains were affected in their growth
C[C@@H]1CC([C@H](O)CC2CC(=O)N(CC(=O)NC34CC5CC(CC(O)(C5)C3)C4)C(=O)C2)C(=O)[C@@H](C)C1 (some centres unmarked) [MT_30.38] | - (no inhibition of growth at the highest tested concentration of 100 μM) | no influence | 21.8 ± 3.3 | 1.2 ± 0.1 |  | 
CCC12CC3CC(C1)CC(NC(=O)CN1C(=O)CC(C[C@@H](O)C4C[C@@H](C)C[C@H](C)C4=O)CC1=O)(C3)C2 (some centres unmarked) [MT_30.51] |  |  | 5.6 ± 1.1 | 0.19 ± 0.06 | ≥ 30 | cytotoxicity to THP-1 cells (THP-1 cells): without having cytotoxic side effects; concentration at which suppression of bacterial replication in THP-1 cells starts [3]: 50 µM; effect on bacterial replication in THP-1 cells [3]: effectively suppressed bacterial replication; IC50-value for Mip relative to FKBP12 (fold higher; FKBP12 inhibited x-fold better) (Mip of L. pneumophila): about 25 fold
CC1CC(C)C(=O)C(C(O)CC2CC(=O)N(CC(=O)NC34CC5(C)CC(C)(CC(O)(C5)C3)C4)C(=O)C2)C1 (centres unmarked) [MT_30.79] | - (no inhibition of growth at the highest tested concentration of 100 μM) | no influence | 4.9 ± 0.9 | 0.22 ± 0.02 |  | IC50-value for Mip relative to FKBP12 (fold higher; FKBP12 inhibited x-fold better) (Mip of L. pneumophila): about 25 fold
C[C@@H]1CC([C@H](O)CC2CC(=O)N(CC(=O)NC34CC5CC(CC(C5)C3)C4)C(=O)C2)[C@H](O)[C@@H](C)C1 (some centres unmarked) [MT_30.92] |  |  | 12.6 ± 1.4 | 1 ± 0.1 | ≥ 30 | 
C[C@@H]1CC([C@H](O)CC2CC(=O)N(CC(=O)NC34CC5CC(CC(C5)C3)C4)C(=O)C2)[C@@H](O)[C@@H](C)C1 (some centres unmarked) [MT_30.93] |  |  | 16.3 ± 2.6 | 0.9 ± 0.05 | ≥ 30 | 
CO[C@H]1C[C@@H]2CC[C@@H](C)[C@@](O)(O2)C(=O)C(=O)N2CCCC[C@H]2C(=O)O[C@H]([C@H](C)C[C@@H]2CC[C@@H](O)[C@H](OC)C2)CC(=O)[C@H](C)/C=C(\C)[C@@H](O)[C@@H](OC)C(=O)[C@H](C)C[C@H](C)/C=C/C=C/C=C/1C [Rapamycin, reference compound] |  |  |  |  | ≥ 40 | WT MIC [2, 7]: 40 µM
